In US9302999B2, “Substituted triazoles as herbicides” (E. I. DU PONT DE NEMOURS AND COMPANY, priority 2012, dated 2016):

How the values were obtained:
Format in all cases: in vivo
Details in all cases: Preemergence
[1] = system: foxtail, giant (giant foxtail, Setaria faberii); test: Test F pre-/postemergence: foxtail, giant
Description: (§1) Seeds of plant species selected from corn (Zea mays), soybean (Glycine max), velvetleaf (Abutilon theophrasti), lambsquarters (Chenopodium album), poinsettia, wild (wild poinsettia, Euphorbia heterophylla), pigweed, palmer (palmer pigweed, Amaranthus palmeri), waterhemp (common waterhemp, Amaranthus rudis), surinam grass (Brachiaria decumbens), crabgrass, Brazil (Brazilian crabgrass, Digitaria horizontalis), panicum, fall (fall panicum Panicum dichotomiflorum), crabgrass, large (large crabgrass, Digitaria sanguinalis), foxtail, giant (giant foxtail, Setaria faberii), foxtail, green (green foxtail Setaria viridis), goosegrass (Eleusine indica), ragweed (common ragweed, Ambrosia elatior), barnyardgrass (Echinochloa crus-galli), sandbur (southern sandbur, Cenchrus echinatus), arrowleaf sida (Sida rhombifolia), ryegrass, Italian (Italian ryegrass, Lolium multiflorum), dayflower, VA (Virginia (VA) dayflower, Commelina virginica), field bindweed (Convolvulus arvensis), cocklebur (common cocklebur, Xanthium strumarium), morningglory (Ipomoea coccinea), nightshade (eastern black nightshade, Solanum ptycanthum), kochia (Kochia scoparia), nutsedge, yellow (yellow nutsedge, Cyperus esculentus), johnsongrass (Sorghum halepense), smartweed (ladysthumb smartweed, Polygonum persicaria), and beggarticks (hairy beggarticks, Bidens pilosa), were planted into a silt loam soil and treated preemergence with test chemicals formulated in a non-phytotoxic solvent mixture which included a surfactant. At the same time, plants selected from these crop and weed species and also pigweed (Amaranthus retroflexus), waterhemp_RES1 (ALS/Triazine resistant common waterhemp, Amaranthus rudis) and waterhemp_RES2 (ALS/HPPD resistant common waterhemp, Amaranthus rudis) were planted in pots containing a planting medium comprising spaghnum peat moss, vermiculite, wetting agent and starter nutrients treated with postemergence applications of some of the test chemicals formulated in the same manner. Plants ranged in height from 2 to 18 cm for postemergence treatments (1- to 4-leaf stage).
(§2) Treated plants and controls were maintained in a greenhouse for 14 to 21 days, after which time all species were compared to controls and visually evaluated. Plant response ratings, summarized in Table E, are based on a scale of 0 to 100 where 0 is no effect and 100 is complete control. A dash (-) response means no test result.

[2] = system: ragweed (common ragweed, Ambrosia elatior); test: Test F pre-/postemergence: ragweed
Description: as §1, §2

corn (Zea mays) = test: Test F pre-/postemergence: corn
Method in brief: (§3)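 Preemergence treatment of seeds sown in silt loam soil, and postemergence treatment of plants 2–18 cm tall (1- to 4-leaf stage), with compounds in non-phytotoxic solvent plus surfactant. Greenhouse 14–21 days, then visual rating versus controls on 0–100 scale (100 = complete control).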

[3] = system: crabgrass, large (large crabgrass, Digitaria sanguinalis); test: Test F pre-/postemergence: crabgrass, large
Description: as §1, §2

[4] = system: goosegrass (Eleusine indica); test: Test F pre-/postemergence: goosegrass
Description: as §1, §2

kochia (Kochia scoparia) = test: Test F pre-/postemergence: kochia
Description: as §1, §2

[5] = system: barnyardgrass (Echinochloa crus-galli); test: Test F pre-/postemergence: barnyardgrass
Method in brief: as §3

[6] = 16 g ai/ha, scale 0 to 100, 0 no effect, 100 complete control
[7] = 31 g ai/ha, scale 0 to 100, 0 no effect, 100 complete control

Cc1nn(-c2ccc(F)cc2F)nc1Oc1ccnc(C(F)(F)F)c1 [Compound 146]
Plant response rating, Foxtail, Giant [1, 6]: 20
Plant response rating, Foxtail, Giant [1, 7]: 20
Plant response rating, Foxtail, Giant ([1]; 62 g ai/ha, scale 0 to 100): 90
Plant response rating, Foxtail, Giant ([1]; 125 g ai/ha, scale 0 to 100): 98
Plant response rating, Foxtail, Giant ([1]; 250 g ai/ha, scale 0 to 100): 100
Plant response rating, Ragweed [2, 6]: 0
Plant response rating, Ragweed [2, 7]: 0
Plant response rating, Ragweed ([2]; 125 g ai/ha, scale 0 to 100): 0
Plant response rating, Ragweed ([2]; 250 g ai/ha, scale 0 to 100): 25
Plant response rating, Corn (corn (Zea mays); [6]): 0
Plant response rating, Corn (corn (Zea mays); [7]): 0
Plant response rating, Corn (corn (Zea mays); 62 g ai/ha, scale 0 to 100): 0
Plant response rating, Corn (corn (Zea mays); 125 g ai/ha, scale 0 to 100): 0
Plant response rating, Corn (corn (Zea mays); 250 g ai/ha, scale 0 to 100): 0
Plant response rating, Crabgrass, Large [3, 6]: 0
Plant response rating, Crabgrass, Large [3, 7]: 75
Plant response rating, Crabgrass, Large ([3]; 62 g ai/ha, scale 0 to 100): 98
Plant response rating, Crabgrass, Large ([3]; 125 g ai/ha, scale 0 to 100): 98
Plant response rating, Crabgrass, Large ([3]; 250 g ai/ha, scale 0 to 100): 100
Plant response rating, Goosegrass [4, 6]: 0
Plant response rating, Goosegrass [4, 7]: 40
Plant response rating, Goosegrass ([4]; 62 g ai/ha, scale 0 to 100): 70
Plant response rating, Goosegrass ([4]; 125 g ai/ha, scale 0 to 100): 75
Plant response rating, Goosegrass ([4]; 250 g ai/ha, scale 0 to 100): 98
Plant response rating, Kochia (kochia (Kochia scoparia); [6]): 0
Plant response rating, Kochia (kochia (Kochia scoparia); [7]): 5
Plant response rating, Kochia (kochia (Kochia scoparia); 62 g ai/ha, scale 0 to 100): 30
Plant response rating, Kochia (kochia (Kochia scoparia); 125 g ai/ha, scale 0 to 100): 50
Plant response rating, Kochia (kochia (Kochia scoparia); 250 g ai/ha, scale 0 to 100): 98
Plant response rating, Barnyardgrass [5, 6]: 0
Plant response rating, Barnyardgrass [5, 7]: 0
Plant response rating, Barnyardgrass ([5]; 62 g ai/ha, scale 0 to 100): 10
Plant response rating, Barnyardgrass ([5]; 125 g ai/ha, scale 0 to 100): 10
Plant response rating, Barnyardgrass ([5]; 250 g ai/ha, scale 0 to 100): 20

COc1nn(-c2cccc(F)c2)nc1Cc1ccnc(C(F)(F)F)c1 [Compound 139]
Plant response rating, Foxtail, Giant [1, 6]: 0
Plant response rating, Foxtail, Giant [1, 7]: 40
Plant response rating, Foxtail, Giant ([1]; 62 g ai/ha, scale 0 to 100): 85
Plant response rating, Foxtail, Giant ([1]; 125 g ai/ha, scale 0 to 100): 98
Plant response rating, Foxtail, Giant ([1]; 250 g ai/ha, scale 0 to 100): 100
Plant response rating, Ragweed [2, 6]: 0
Plant response rating, Ragweed [2, 7]: 0
Plant response rating, Ragweed ([2]; 125 g ai/ha, scale 0 to 100): 0
Plant response rating, Ragweed ([2]; 250 g ai/ha, scale 0 to 100): 0
Plant response rating, Corn (corn (Zea mays); [6]): 0
Plant response rating, Corn (corn (Zea mays); [7]): 0
Plant response rating, Corn (corn (Zea mays); 62 g ai/ha, scale 0 to 100): 0
Plant response rating, Corn (corn (Zea mays); 125 g ai/ha, scale 0 to 100): 0
Plant response rating, Corn (corn (Zea mays); 250 g ai/ha, scale 0 to 100): 5
Plant response rating, Crabgrass, Large [3, 6]: 30
Plant response rating, Crabgrass, Large [3, 7]: 95
Plant response rating, Crabgrass, Large ([3]; 62 g ai/ha, scale 0 to 100): 95
Plant response rating, Crabgrass, Large ([3]; 125 g ai/ha, scale 0 to 100): 100
Plant response rating, Crabgrass, Large ([3]; 250 g ai/ha, scale 0 to 100): 100
Plant response rating, Goosegrass [4, 6]: 5
Plant response rating, Goosegrass [4, 7]: 70
Plant response rating, Goosegrass ([4]; 62 g ai/ha, scale 0 to 100): 80
Plant response rating, Goosegrass ([4]; 125 g ai/ha, scale 0 to 100): 98
Plant response rating, Goosegrass ([4]; 250 g ai/ha, scale 0 to 100): 100
Plant response rating, Kochia (kochia (Kochia scoparia); [6]): 0
Plant response rating, Kochia (kochia (Kochia scoparia); [7]): 0
Plant response rating, Kochia (kochia (Kochia scoparia); 62 g ai/ha, scale 0 to 100): 35
Plant response rating, Kochia (kochia (Kochia scoparia); 125 g ai/ha, scale 0 to 100): 90
Plant response rating, Kochia (kochia (Kochia scoparia); 250 g ai/ha, scale 0 to 100): 98
Plant response rating, Barnyardgrass [5, 6]: 0
Plant response rating, Barnyardgrass [5, 7]: 10
Plant response rating, Barnyardgrass ([5]; 62 g ai/ha, scale 0 to 100): 10
Plant response rating, Barnyardgrass ([5]; 125 g ai/ha, scale 0 to 100): 10
Plant response rating, Barnyardgrass ([5]; 250 g ai/ha, scale 0 to 100): 98
